As usually defined, the IC50 is the concentration that inhibits the measured activity by half. In general, Kd refers to the constant that tells how readily two partners part at equilibrium.

Experiment [1] has as its system MCF7. Description: Cytotoxicity against Homo sapiens (human) MCF7 cells assessed as cell viability after 48 hr by MTT assay. It counts as functional, cell-based. The conditions noted are these: MCF7, 48 h. In general terms: Formazan colour is commonly taken as a measure of viable cells.
Experiment [2] concerns MCF7. Kind of experiment: Cytotoxicity against Homo sapiens (human) MCF7 cells assessed as cell viability at 100 uM after 48 hr by MTT assay relative to control. It counts as functional. The note with it: MCF7, 48 h, read-out: Activity.
Experiment [3] relates to MCF7. Description: Cytotoxicity against Homo sapiens (human) MCF7 cells assessed as cell viability at 75 uM after 48 hr by MTT assay relative to control. It counts as functional. The conditions noted are these: MCF7, 48 h, read-out: Activity.
Experiment [4] has as its system MCF7. Kind of experiment: Cytotoxicity against Homo sapiens (human) MCF7 cells assessed as cell viability at 50 uM after 48 hr by MTT assay relative to control. The note with it: MCF7, 48 h, read-out: Activity. It counts as functional.
The subject of experiment [5] is MCF7. Kind of experiment: Cytotoxicity against Homo sapiens (human) MCF7 cells assessed as cell viability at 25 uM after 48 hr by MTT assay relative to control. Type of experiment: functional. The conditions noted are these: MCF7, 48 h, read-out: Activity.
The target of experiment [6] is Growth factor receptor-bound protein 2 (Homo sapiens, UniProt P62993). Kind of experiment: Binding affinity to Grb2-SH2 (unknown origin) by surface plasmon resonance analysis.
Experiment [7] relates to MCF7. Description: Cytotoxicity against Homo sapiens (human) MCF7 cells assessed as cell viability after 24 hr by MTT assay. Type of experiment: functional, cell-based. The conditions noted are these: MCF7, 24 h.

Square brackets hold non-standard residues; d marks the D form. Peptide text beside a SMILES is read from it. * marks the point of attachment. Fmoc = O=C(OCC1c2ccccc2-c2ccccc21)*; Aib = CC(C)(N)C(=O)O

Chain of Growth factor receptor-bound protein 2 (P62993 whole entry): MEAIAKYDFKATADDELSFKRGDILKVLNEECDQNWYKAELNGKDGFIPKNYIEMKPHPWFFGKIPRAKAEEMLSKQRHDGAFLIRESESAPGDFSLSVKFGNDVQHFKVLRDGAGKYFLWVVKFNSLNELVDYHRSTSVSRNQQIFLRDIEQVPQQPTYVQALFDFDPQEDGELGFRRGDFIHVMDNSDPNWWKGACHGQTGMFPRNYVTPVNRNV

As to `CC[C@H](C)[C@H](NC(=O)[C@H](C)NC(=O)[C@@H](NC(=O)[C@@H](N)Cc1ccc(O)cc1)[C@@H](C)O)C(=O)N[C@@H](C)C(=O)N[C@@H](Cc1c[nH]c2ccccc12)C(=O)N[C@H](C(=O)N[C@@H](CCCCN)C(=O)N[C@@H](C)C(=O)N[C@@H](Cc1ccccc1)C(=O)N[C@H](C(=O)N[C@@H](CCCNC(=N)N)C(=O)N[C@@H](CCCCN)C(=O)N[C@@H](CC(C)C)C(=O)N[C@@H](CCCNC(=N)N)C(=O)N[C@@H](CCCCN)C(=O)O)[C@@H](C)CC)C(C)C` (H-YTAIAWVKAFIRKLRK-OH), in the experiment on MCF7 [1], the 50% inhibitory concentration (IC50) is > 100 µM. In the experiment on MCF7 [2], the viability at 100 µM was 94.9%. Further, the viability at 75 µM in the experiment on MCF7 [3] was found to be 96.4%. For the same molecule, the viability at 50 µM in the experiment on MCF7 [4] turned out to be 97.7%. Also, in the experiment on MCF7 [5], the viability at 25 µM was 101%.

In the case of `CC(C)(NC(=O)[C@H](Cc1ccc(O)cc1)NC(=O)[C@H](CCC(=O)O)NC(=O)OCC1c2ccccc2-c2ccccc21)C(=O)N[C@@H](CC(N)=O)C(=O)O` (Fmoc-EY[Aib]N-OH), the Kd in experiment [6] was found to be 0.0063 µM. Further, the viability at 100 µM with MCF7 [2] came to 95.1%. Moreover, the viability at 75 µM with MCF7 [3] was 98.2%. Besides, the viability at 50 µM in the experiment with MCF7 [4] amounted to 104%. Moreover, in the experiment on MCF7 [5], the viability at 25 µM is 104%.

`N=C(N)NCCC[C@H](NC(=O)[C@H](CCCNC(=N)N)NC(=O)[C@H](CCCCN)NC(=O)[C@H](CCCCN)NC(=O)[C@H](CCCNC(=N)N)NC(=O)CN)C(=O)O` (H-GRKKRR-OH): in the experiment on MCF7 [1], the IC50 is > 100 µM. In the experiment on MCF7 [2], the viability at 100 µM stood at 95.4%. The viability at 75 µM with MCF7 [3] is 102%. In addition, the viability at 50 µM in the experiment with MCF7 [4] came to 98.5%. The viability at 25 µM with MCF7 [5] was determined as 93.9%.

With `CC(C)(NC(=O)[C@H](Cc1ccc(O)cc1)NC(=O)[C@H](CCC(=O)O)NC(=O)OCC1c2ccccc2-c2ccccc21)C(=O)N[C@@H](CC(N)=O)C(=O)NCC(=O)N[C@@H](CCCNC(=N)N)C(=O)N[C@@H](CCCCN)C(=O)N[C@@H](CCCCN)C(=O)N[C@@H](CCCNC(=N)N)C(=O)N[C@@H](CCCNC(=N)N)C(=O)O` (Fmoc-EY[Aib]NGRKKRR-OH), the IC50 in the experiment with MCF7 [1] is > 100 µM. The viability at 100 µM in the experiment on MCF7 [2] turned out to be 85.3%. Besides, the viability at 75 µM in the experiment with MCF7 [3] turned out to be 90.9%. In addition, in the experiment with MCF7 [4], the viability at 50 µM worked out at 91.6%. The viability at 25 µM in the experiment with MCF7 [5] came to 84.2%.

As to `CC[C@H](C)[C@H](NC(=O)[C@H](C)NC(=O)[C@@H](N)Cc1ccc(O)cc1)C(=O)N[C@@H](C)C(=O)N[C@@H](Cc1c[nH]c2ccccc12)C(=O)N[C@H](C(=O)N[C@@H](CCCCN)C(=O)N[C@@H](C)C(=O)N[C@@H](Cc1ccccc1)C(=O)N[C@H](C(=O)N[C@@H](CCCNC(=N)N)C(=O)N[C@@H](CCCCN)C(=O)N[C@@H](CC(C)C)C(=O)N[C@@H](CCCNC(=N)N)C(=O)N[C@@H](CCCCN)C(=O)N[C@@H](CCC(=O)O)C(=O)N[C@@H](Cc1ccc(O)cc1)C(=O)NC(C)(C)C(=O)N[C@@H](CC(N)=O)C(=O)O)[C@@H](C)CC)C(C)C` (H-YAIAWVKAFIRKLRKEY[Aib]N-OH), the IC50 with MCF7 [1] was > 100 µM. Also, the viability at 100 µM with MCF7 [2] came to 59.9%. Also, in the experiment on MCF7 [3], the viability at 75 µM was determined as 64.5%. Further, the viability at 50 µM with MCF7 [4] is 74.4%. Also, the viability at 25 µM in the experiment with MCF7 [5] was determined as 83.8%.

Regarding `CC[C@H](C)[C@H](NC(=O)[C@H](C)NC(=O)[C@@H](NC(=O)[C@H](Cc1ccc(O)cc1)NC(=O)[C@H](CC(N)=O)NC(=O)C(C)(C)NC(=O)[C@H](Cc1ccc(O)cc1)NC(=O)[C@@H](N)CCC(=O)O)[C@@H](C)O)C(=O)N[C@@H](C)C(=O)N[C@@H](Cc1c[nH]c2ccccc12)C(=O)N[C@H](C(=O)N[C@@H](CCCCN)C(=O)N[C@@H](C)C(=O)N[C@@H](Cc1ccccc1)C(=O)N[C@H](C(=O)N[C@@H](CCCNC(=N)N)C(=O)N[C@@H](CCCCN)C(=O)N[C@@H](CC(C)C)C(=O)N[C@@H](CCCNC(=N)N)C(=O)N[C@@H](CCCCN)C(=O)O)[C@@H](C)CC)C(C)C` (H-EY[Aib]NYTAIAWVKAFIRKLRK-OH), the IC50 was found to be 67.1 µM with MCF7 [1] and 87 µM with MCF7 [7]. In addition, the viability at 100 µM with MCF7 [2] came to 19.3%. Also, the viability at 75 µM with MCF7 [3] was found to be 40.5%. Also, the viability at 50 µM in the experiment on MCF7 [4] is 80.4%. Besides, in the experiment on MCF7 [5], the viability at 25 µM was determined as 95.4%.

For `CC(C)(NC(=O)[C@H](Cc1ccc(O)cc1)NC(=O)[C@H](CCC(=O)O)NC(=O)[C@H](CCCNC(=N)N)NC(=O)[C@H](CCCNC(=N)N)NC(=O)[C@H](CCCCN)NC(=O)[C@H](CCCCN)NC(=O)[C@H](CCCNC(=N)N)NC(=O)CN)C(=O)N[C@@H](CC(N)=O)C(=O)O` (H-GRKKRREY[Aib]N-OH), in the experiment with MCF7 [1], the concentration for half-maximal inhibition (IC50) was > 100 µM. The viability at 100 µM with MCF7 [2] was determined as 82.1%. In addition, in the experiment with MCF7 [3], the viability at 75 µM turned out to be 83.2%. In addition, the viability at 50 µM in the experiment on MCF7 [4] worked out at 91.6%. The viability at 25 µM in the experiment with MCF7 [5] stood at 90.9%.

`CC[C@H](C)[C@H](NC(=O)[C@H](C)NC(=O)[C@@H](NC(=O)[C@H](Cc1ccc(O)cc1)NC(=O)[C@H](Cc1ccc(O)cc1)NC(=O)[C@H](CCC(=O)O)NC(=O)C(C)(C)NC(=O)[C@@H](N)CC(N)=O)[C@@H](C)O)C(=O)N[C@@H](C)C(=O)N[C@@H](Cc1c[nH]c2ccccc12)C(=O)N[C@H](C(=O)N[C@@H](CCCCN)C(=O)N[C@@H](C)C(=O)N[C@@H](Cc1ccccc1)C(=O)N[C@H](C(=O)N[C@@H](CCCNC(=N)N)C(=O)N[C@@H](CCCCN)C(=O)N[C@@H](CC(C)C)C(=O)N[C@@H](CCCNC(=N)N)C(=O)N[C@@H](CCCCN)C(=O)O)[C@@H](C)CC)C(C)C` (H-N[Aib]EYYTAIAWVKAFIRKLRK-OH): the IC50 in the experiment on MCF7 [1] was 72.4 µM. In addition, in the experiment on MCF7 [2], the viability at 100 µM stood at 40.6%. The viability at 75 µM in the experiment on MCF7 [3] is 56.9%. In addition, the viability at 50 µM in the experiment on MCF7 [4] was 78.9%. Moreover, the viability at 25 µM in the experiment with MCF7 [5] turned out to be 85.3%.

As for `CC(C)(NC(=O)[C@H](Cc1ccc(O)cc1)NC(=O)[C@@H](N)CCC(=O)O)C(=O)N[C@@H](CC(N)=O)C(=O)NCC(=O)N[C@@H](CCCNC(=N)N)C(=O)N[C@@H](CCCCN)C(=O)N[C@@H](CCCCN)C(=O)N[C@@H](CCCNC(=N)N)C(=O)N[C@@H](CCCNC(=N)N)C(=O)O` (H-EY[Aib]NGRKKRR-OH), in the experiment with MCF7 [1], the IC50 was > 100 µM. Also, the viability at 100 µM in the experiment with MCF7 [2] came to 93.1%. In addition, the viability at 75 µM in the experiment on MCF7 [3] worked out at 91.5%. Moreover, the viability at 50 µM with MCF7 [4] was 99.4%. Moreover, the viability at 25 µM in the experiment on MCF7 [5] was 90.7%.

With `CC[C@H](C)[C@H](NC(=O)[C@H](C)NC(=O)[C@@H](NC(=O)[C@H](Cc1ccc(O)cc1)NC(=O)[C@H](CC(N)=O)NC(=O)C(C)(C)NC(=O)[C@H](Cc1ccc(O)cc1)NC(=O)[C@H](CCC(=O)O)NC(=O)OCC1c2ccccc2-c2ccccc21)[C@@H](C)O)C(=O)N[C@@H](C)C(=O)N[C@@H](Cc1c[nH]c2ccccc12)C(=O)N[C@H](C(=O)N[C@@H](CCCCN)C(=O)N[C@@H](C)C(=O)N[C@@H](Cc1ccccc1)C(=O)N[C@H](C(=O)N[C@@H](CCCNC(=N)N)C(=O)N[C@@H](CCCCN)C(=O)N[C@@H](CC(C)C)C(=O)N[C@@H](CCCNC(=N)N)C(=O)N[C@@H](CCCCN)C(=O)O)[C@@H](C)CC)C(C)C` (Fmoc-EY[Aib]NYTAIAWVKAFIRKLRK-OH), the IC50 with MCF7 [1] was > 100 µM. Moreover, the viability at 100 µM with MCF7 [2] came out at 79.8%. Besides, the viability at 75 µM in the experiment on MCF7 [3] was 77.3%. For the same molecule, the viability at 50 µM in the experiment on MCF7 [4] was determined as 86.5%. Moreover, in the experiment with MCF7 [5], the viability at 25 µM turned out to be 94.1%.

The values above are taken from ChEMBL document CHEMBL3045965, “Design, synthesis, and evaluation of fluorescent cell-penetrating peptidic antagonists of Grb2-SH2 for targeting MCF-7 breast cancer cells” (Med Chem Res, 2013).
